In assay [1] the test system is DispersinB. The class given is biochemical, Aggregatibacter actinomycetemcomitans. The following applies: 50 mM citrate buffer pH 5.9, salt concentration as in label, control with no salts = 100%. The source says:
Activity of the control sample with no salts was considered 100%.

Assay [2] deals with DispersinB. The following applies: 50 mM Citrate, 100 mM NaCl pH 5.9 control = 100%.
Protocol: DispersinB enzyme solutions (100 μg/ml) were prepared in 50 mM citrate buffer, containing 200 mM K2SO4. The pH was adjusted (5.4 to 5.9). DispersinB enzymatic activity was measured using β-N-Acetylglucosaminidase assay kit from Sigma (product code CS0780) in 96-well microtiter plate following the manufacturer's instructions. The data was represented as % enzymatic activity in comparison to enzyme activity of control sample that contained 100 μg/ml DispersinB in 50 mM citrate buffer (pH 5.9) containing 100 mM NaCl Activity of the control sample was considered 100%.
The test system of assay [3] is DispersinB. The following applies: 50 mM citrate buffer pH 5.9, 100 mM K2SO4 sample = 100%.
Assay [4] deals with DispersinB. The class given is biochemical, Aggregatibacter actinomycetemcomitans. To be noted: 50 mM citrate buffer pH 5.9, 100 mM NaCl, levulinic acid % as in label, control = 100%. The method, then:
DispersinB enzyme (100 μg/ml) solutions in 50 mM citrate buffer (pH 5.9), 100 mM NaCl containing Levulinic acid (0.25%-2%) were tested for DispersinB enzymatic activity following β-N-Acetylglucosaminidase assay.

Read-outs that look alike come from different tables or passages of the source. Marks after values point to notes of the source that are not given here.

For the molecule `O=[N+]([O-])[O-].[K+]` [100 mM KNO3, KNO3], the “% enzymatic activity of DispersinB (Mean)” value (from here on “% enzymatic activity”) in the assay with DispersinB [1] was 135* %.
As to `[Cl-].[Li+]` [100 mM LiCl, LiCl], the “% enzymatic activity” value in the assay on DispersinB [1] is recorded as 97%.
Still for that read-out and setting: the result for `[Cl-].[Cl-].[Mg+2]` [100 mM MgCl2, MgCl2] reads 81* %.
The same measure, in the same setting: the result for `O=S(=O)([O-])[O-].[Mg+2]` [100 mM MgSO4, MgSO4] reads 87%; that for `CC(=O)O.N` [100 mM NH4 CH2COO, NH4 CH2COO], 66* %.
Take `Cl.N` [100 mM NH4Cl, NH4Cl]: in the assay on DispersinB [1], the “% enzymatic activity” value is 129* %.
Consider `O=S(=O)([O-])[O-].[Na+].[Na+]` [100 mM Na2SO4, Na2SO4], for which, in the assay on DispersinB [1], the “% enzymatic activity” value is 174* %.
For the molecule `[Cl-].[Na+]` [100 mM NaCl, NaCl], in the assay on DispersinB [2] (pH 5.9), the “% Activity” value is reported as 100.00^b %. Moreover, in the assay on DispersinB [1], the “% enzymatic activity” value is given as 179* %.
`O=S(=O)([O-])[O-].[K+].[K+]` [K2SO4, potassium sulfate]: the “% Activity” value in the assay with DispersinB [2] (pH 4) is 11.06^ab %; with DispersinB [2] (pH 4.2), 22.55^ab %; in the assay on DispersinB [2] (pH 4.4) it was 34.17^ab %; with DispersinB [2] (pH 4.6) it was 57.21 ^ab %; in the assay with DispersinB [2] (pH 4.8) it was 81.09 ^ab %; in the assay on DispersinB [2] (pH 5), 118.00 ^ab %. The “% Activity” value with DispersinB [2] (pH 5.1) is given as 133.61 ^ab %; with DispersinB [2] (pH 5.2) it was 149.86 ^ab %; in the assay on DispersinB [2] (pH 5.3), 142.65 ^ab %; in the assay with DispersinB [2] (pH 5.4) it was 162.25^a %; in the assay on DispersinB [2] (pH 5.5) it was 172.83^a %; in the assay with DispersinB [2] (pH 5.6), 166.67^a %. The “% Activity” value was 154.62^a % in the assay on DispersinB [2] (pH 5.7); 146.99 ^ab % with DispersinB [2] (pH 5.8); 143.77 ^ab % with DispersinB [2] (pH 5.9); 130.81 ^ab % with DispersinB [2] (pH 6); 100% with DispersinB [3] (100 mM K2SO4); 143* % with DispersinB [3] (150 mM K2SO4). Also, the “% Activity” value in the assay on DispersinB [3] (200 mM K2SO4) was 149* %; in the assay with DispersinB [3] (250 mM K2SO4), 159* %; with DispersinB [3] (300 mM K2SO4), 141* %. Moreover, the “% enzymatic activity” value is given as 211* % with DispersinB [1] (listed as 100 mM K2SO4) and 289* % in the assay on DispersinB [1] (listed as 200 mM K2SO4).
`CC(=O)CCC(=O)O` [Levulinic acid, 4-oxopentanoic acid]: the “% enzymatic activity” value is 103* % in the assay on DispersinB [4] (listed as 0.25% Levulinic acid); 102% in the assay on DispersinB [4] (listed as 0.5% Levulinic acid); 104% with DispersinB [4] (listed as 1% Levulinic acid); 104* % in the assay on DispersinB [4] (listed as 2% Levulinic acid); 109* % in the assay on DispersinB [4] (listed as 3% Levulinic acid); 109* % in the assay on DispersinB [4] (listed as 4% Levulinic acid). Besides, the “% enzymatic activity” value in the assay on DispersinB [4] (listed as 5% Levulinic acid) was 114* %.
